Tested on: Tsp1 gene
Experiment: Tsp1 gene expression in PBMC after 48 hrs stimulation, real-time PCR
Assay type: cell-based, human
Settings: 10^-6 M Dex, normalised to basal expression
Text: FIG. 2 depicts the average value of expression level of Tsp1 gene in PBMC in response to 48 hrs stimulation with IDX0150 alone, Dex alone, or IDX0150 and Dex combination as quantified by real-time PCR. The experimental conditions and data handling were as described in FIG. 1 and Example 1.
FIG. 5 depicts the average value of expression level of Tsp1 gene in PBMC in response to 48 hrs stimulation with IDX0150 alone, Dex alone, or IDX0150 and Dex combination as quantified by real-time PCR. The experimental conditions and data handling were as described in FIG. 4 and Example 1.
Peripheral blood mononuclear cells (PMBC) were isolated from blood samples of seven steroid resistant asthma or ulcerative colitis patients and ten healthy volunteers by density gradient centrifugation using Ficoll-Paque Plus (Pharmacia Biotech), washed three times in buffered saline solution (PBS), and resuspended in complete RPMI 1640 (Sigma/Gibco) containing 15% heat inactivated fetal bovine serum (FCS) (Gibco, Life Technologies), 100 U/ml penicillin, 100 μg/ml streptomycin (Life Technologies), 2 mM L-glutamine (Sigma), gentamycin 25 ug/ml (Sigma) and 5 mM Hepes (Gibco, Life Technologies). Cells were counted using 0.4% Trypan blue solution (Sigma Aldrich). On average the yield of PBMC was in range of 60-120×10^6 cells per donor sample. […]

C[C@@H]1C[C@H]2[C@@H]3CCC4=CC(=O)C=C[C@]4(C)[C@@]3(F)[C@@H](O)C[C@]2(C)[C@@]1(O)C(=O)CO [dexamethasone]
induction of Tsp1: 3-5 fold
